Reference: ChEMBL document CHEMBL3991601, “The target landscape of clinical kinase drugs” (Science, 2017)
Calls of active or inactive are those of the source.

Legend:
[1] = biological target: T1, Uncharacterized protein FLJ45252 (Homo sapiens, UniProt Q6ZSR9); conditions: read-out: Kd apparent; k-562, colo 205, sk-n-be(2) and mv-4-11
T1 sequence (Q6ZSR9 whole entry): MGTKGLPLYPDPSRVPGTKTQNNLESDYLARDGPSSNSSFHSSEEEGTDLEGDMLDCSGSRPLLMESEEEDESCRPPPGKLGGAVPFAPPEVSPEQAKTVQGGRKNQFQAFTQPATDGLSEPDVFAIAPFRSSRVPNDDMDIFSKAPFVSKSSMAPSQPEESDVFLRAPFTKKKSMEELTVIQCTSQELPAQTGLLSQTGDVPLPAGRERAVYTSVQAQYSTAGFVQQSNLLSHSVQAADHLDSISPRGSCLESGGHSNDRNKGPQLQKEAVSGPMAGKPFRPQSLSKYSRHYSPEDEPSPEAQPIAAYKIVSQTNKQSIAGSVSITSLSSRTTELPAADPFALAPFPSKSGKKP

[2] = biological target: T2, Serine/threonine-protein kinase NLK (Homo sapiens, UniProt Q9UBE8)
T2 sequence (Q9UBE8 whole entry): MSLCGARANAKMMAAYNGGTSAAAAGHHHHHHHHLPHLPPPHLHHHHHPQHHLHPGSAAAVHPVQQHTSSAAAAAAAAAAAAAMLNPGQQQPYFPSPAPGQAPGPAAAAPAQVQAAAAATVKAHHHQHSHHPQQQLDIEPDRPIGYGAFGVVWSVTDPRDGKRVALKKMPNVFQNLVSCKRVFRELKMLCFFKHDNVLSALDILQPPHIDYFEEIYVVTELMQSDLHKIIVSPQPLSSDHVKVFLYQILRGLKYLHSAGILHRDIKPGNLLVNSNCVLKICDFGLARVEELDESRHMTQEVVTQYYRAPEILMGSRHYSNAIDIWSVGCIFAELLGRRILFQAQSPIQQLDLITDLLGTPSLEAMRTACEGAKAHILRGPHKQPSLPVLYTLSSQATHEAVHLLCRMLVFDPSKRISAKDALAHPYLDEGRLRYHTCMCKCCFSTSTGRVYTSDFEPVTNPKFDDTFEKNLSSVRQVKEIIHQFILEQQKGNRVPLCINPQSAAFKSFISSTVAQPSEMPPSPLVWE

[3] = biological target: T3, Ras-related protein Rab-27A (Homo sapiens, UniProt P51159)
T3 sequence (P51159 whole entry): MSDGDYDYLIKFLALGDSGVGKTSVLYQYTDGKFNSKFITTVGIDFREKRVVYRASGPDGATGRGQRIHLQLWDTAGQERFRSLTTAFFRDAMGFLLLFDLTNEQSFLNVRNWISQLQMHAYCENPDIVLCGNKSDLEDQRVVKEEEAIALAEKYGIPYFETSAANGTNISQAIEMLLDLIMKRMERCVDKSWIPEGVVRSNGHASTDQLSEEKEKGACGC

[4] = biological target: T4, Probable ATP-dependent RNA helicase DDX6 (Homo sapiens, UniProt P26196)
T4 sequence (P26196 whole entry): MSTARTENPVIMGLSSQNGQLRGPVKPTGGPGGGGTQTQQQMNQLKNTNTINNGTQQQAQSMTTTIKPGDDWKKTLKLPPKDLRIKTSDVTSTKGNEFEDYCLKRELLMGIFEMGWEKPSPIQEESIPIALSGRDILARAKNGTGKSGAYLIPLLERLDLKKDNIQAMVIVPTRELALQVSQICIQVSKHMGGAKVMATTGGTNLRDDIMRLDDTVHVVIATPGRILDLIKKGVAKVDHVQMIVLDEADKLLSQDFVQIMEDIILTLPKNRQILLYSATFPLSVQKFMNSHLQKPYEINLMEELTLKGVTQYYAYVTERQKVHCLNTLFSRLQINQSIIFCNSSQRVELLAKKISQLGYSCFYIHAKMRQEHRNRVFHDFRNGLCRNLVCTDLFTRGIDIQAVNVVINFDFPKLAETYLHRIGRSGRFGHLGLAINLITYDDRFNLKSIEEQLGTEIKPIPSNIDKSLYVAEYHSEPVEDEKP

[5] = biological target: T5, Signal recognition particle receptor subunit alpha (Homo sapiens, UniProt P08240)
T5 sequence (P08240 whole entry): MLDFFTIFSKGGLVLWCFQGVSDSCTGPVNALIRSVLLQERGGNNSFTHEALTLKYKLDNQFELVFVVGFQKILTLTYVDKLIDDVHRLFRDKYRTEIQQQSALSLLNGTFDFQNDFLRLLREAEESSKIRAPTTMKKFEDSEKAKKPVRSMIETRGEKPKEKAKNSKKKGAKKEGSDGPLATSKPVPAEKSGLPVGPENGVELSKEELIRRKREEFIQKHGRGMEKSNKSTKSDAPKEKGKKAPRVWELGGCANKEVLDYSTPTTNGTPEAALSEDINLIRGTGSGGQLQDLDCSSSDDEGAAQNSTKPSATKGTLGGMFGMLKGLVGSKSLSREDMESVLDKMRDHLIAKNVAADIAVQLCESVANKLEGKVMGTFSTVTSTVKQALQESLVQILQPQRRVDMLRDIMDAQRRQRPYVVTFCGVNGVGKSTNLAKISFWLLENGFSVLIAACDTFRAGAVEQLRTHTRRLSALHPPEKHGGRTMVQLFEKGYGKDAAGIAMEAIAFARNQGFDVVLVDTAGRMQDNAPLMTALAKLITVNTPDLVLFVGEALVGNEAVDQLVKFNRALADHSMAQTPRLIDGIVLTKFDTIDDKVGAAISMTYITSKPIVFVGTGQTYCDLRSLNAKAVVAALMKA

[6] = biological target: NADH dehydrogenase [ubiquinone] 1 alpha subcomplex subunit 13 (Homo sapiens, UniProt Q9P0J0)
Sequence of NADH dehydrogenase [ubiquinone] 1 alpha subcomplex subunit 13 (Q9P0J0 whole entry, one chain of several): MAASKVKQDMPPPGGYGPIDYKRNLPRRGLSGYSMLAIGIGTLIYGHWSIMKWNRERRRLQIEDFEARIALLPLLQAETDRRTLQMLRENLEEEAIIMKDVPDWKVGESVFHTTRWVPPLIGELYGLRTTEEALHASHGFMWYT

[7] = biological target: T6, Rab-like protein 3 (Homo sapiens, UniProt Q5HYI8)
T6 sequence (Q5HYI8 whole entry): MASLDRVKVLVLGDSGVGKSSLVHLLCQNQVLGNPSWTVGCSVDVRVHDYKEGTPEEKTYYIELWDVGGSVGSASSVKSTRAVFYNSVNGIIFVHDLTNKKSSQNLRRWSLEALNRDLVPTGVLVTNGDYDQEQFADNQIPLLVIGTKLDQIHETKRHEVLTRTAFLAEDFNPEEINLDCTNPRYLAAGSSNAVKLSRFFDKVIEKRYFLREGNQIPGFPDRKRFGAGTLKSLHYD
Further: in the data inactive means no Kd found up to 30 µM.

Kd [1] | Kd [2] | Kd [4] | Kd [5] | Kd [6] | Kd [7] | SMILES | Kd [3]
– | > 30 µM (inactive) | – | – | – | > 30 µM (inactive) | COc1cccc(Nc2ncnn3ccc(CN4CC[C@@H](N)[C@H](O)C4)c23)c1 [BMS-690514] | > 30 µM (inactive)
> 30 µM (inactive) | > 30 µM (inactive) | > 30 µM (inactive) | > 30 µM (inactive) | > 30 µM (inactive) | – | O=C(Nc1ccc(OC(F)(F)F)cc1)c1sccc1NCc1ccnc2ccccc12 [OSI-930] | > 30 µM (inactive)
> 30 µM (inactive) | 0.816 µM | > 30 µM (inactive) | > 30 µM (inactive) | > 30 µM (inactive) | > 30 µM (inactive) | CC(C)(O)CC(=O)NCCn1ccc2ncnc(Nc3ccc(Oc4cccc(C(F)(F)F)c4)c(Cl)c3)c21 [TAK-285] | –
0.869 µM (active) | > 30 µM (inactive) | > 30 µM (inactive) | > 30 µM (inactive) | > 30 µM (inactive) | > 30 µM (inactive) | Cc1cc(C(=O)Nc2cc(Oc3ccc4nc(NC(=O)C5CC5)cn4n3)ccc2C)n(C)n1 [TAK-593] | –
> 30 µM (inactive) | > 30 µM (inactive) | > 30 µM (inactive) | > 30 µM (inactive) | – | > 30 µM (inactive) | Cn1c(=O)c(F)c(Nc2ccc(I)cc2F)c2c(=O)n(C[C@@H](O)CO)cnc21 [TAK-733] | –

The next lines start with the compound.

SMILES | Kd [1] | Kd [2] | Kd [4] | Kd [5] | Kd [6] | Kd [7] | Kd [3]
Cc1c(NC(=O)OC[C@@H]2COCCN2)cn2ncnc(Nc3ccc4c(cnn4Cc4cccc(F)c4)c3)c12 [AC-480] | > 30 µM (inactive) | > 30 µM (inactive) | > 30 µM (inactive) | – | – | – | > 30 µM (inactive)
NC[C@@](O)(c1ccc(Cl)cc1)c1ccc(-c2cn[nH]c2)cc1 [AT-13148] | > 30 µM (inactive) | > 30 µM (inactive) | > 30 µM (inactive) | > 30 µM (inactive) | > 30 µM (inactive) | – | > 30 µM (inactive)
CCN(CCCOc1ccc2c(Nc3cc(CC(=O)Nc4cccc(F)c4)n[nH]3)ncnc2c1)CCOP(=O)(O)O [BARASERTIB] | > 30 µM (inactive) | > 30 µM (inactive) | > 30 µM (inactive) | – | > 30 µM (inactive) | > 30 µM (inactive) | –
COc1ccc(-c2ccc3ncc4c(c3c2)n(-c2ccc(N3CCNCC3)c(C(F)(F)F)c2)c(=O)n4C)cn1 [BGT-226 FREE BASE] | > 30 µM (inactive) | > 30 µM (inactive) | > 30 µM (inactive) | – | > 30 µM (inactive) | – | > 30 µM (inactive)
COc1cc2c(Oc3ccc4[nH]c(C)cc4c3F)ncnc2cc1OCCCN1CCCC1 [CEDIRANIB] | – | – | > 30 µM (inactive) | > 30 µM (inactive) | > 30 µM (inactive) | – | > 30 µM (inactive)
CC1(COc2ccc3c(c2)ncn3-c2ccc3cccc(N4CCC(N)CC4)c3n2)COC1 [CRENOLANIB] | > 30 µM (inactive) | > 30 µM (inactive) | > 30 µM (inactive) | – | > 30 µM (inactive) | > 30 µM (inactive) | > 30 µM (inactive)
O=S(=O)(c1cccc2cnccc12)N1CCCNCC1 [FASUDIL] | > 30 µM (inactive) | > 30 µM (inactive) | > 30 µM (inactive) | > 30 µM (inactive) | > 30 µM (inactive) | – | > 30 µM (inactive)
Cc1c(Cn2c(C)nc3c(C(=O)O)cc(N4CCOCC4)cc32)cccc1C(F)(F)F [GSK-2636771] | > 30 µM (inactive) | > 30 µM (inactive) | > 30 µM (inactive) | > 30 µM (inactive) | > 30 µM (inactive) | > 30 µM (inactive) | –
C=CC(=O)Nc1cc(Nc2nccc(-c3cn(C)c4ccccc34)n2)c(OC)cc1N(C)CCN(C)C [OSIMERTINIB] | – | > 30 µM (inactive) | > 30 µM (inactive) | > 30 µM (inactive) | > 30 µM (inactive) | – | > 30 µM (inactive)
CC(C)CC(=O)Nc1[nH]nc2c1CN(C(=O)C1CCN(C)CC1)C2(C)C [PHA-793887] | > 30 µM (inactive) | – | > 30 µM (inactive) | – | > 30 µM (inactive) | – | > 30 µM (inactive)
COc1cc(F)c(F)c(Nc2ccc(I)cc2F)c1NS(=O)(=O)C1(C[C@H](O)CO)CC1 [REFAMETINIB] | > 30 µM (inactive) | > 30 µM (inactive) | > 30 µM (inactive) | – | > 30 µM (inactive) | > 30 µM (inactive) | > 30 µM (inactive)
C=CC(=O)Nc1cccc(Nc2nc(Nc3ccc(N4CCN(C(C)=O)CC4)cc3OC)ncc2C(F)(F)F)c1 [ROCILETINIB] | > 30 µM (inactive) | > 30 µM (inactive) | > 30 µM (inactive) | > 30 µM (inactive) | > 30 µM (inactive) | > 30 µM (inactive) | –
O=C(O)c1ccc2c(c1)nc(Nc1cccc(Cl)c1)c1ccncc12 [SILMITASERTIB] | > 30 µM (inactive) | > 30 µM (inactive) | > 30 µM (inactive) | > 30 µM (inactive) | > 30 µM (inactive) | > 30 µM (inactive) | –
C=CCN(/C=C1/C(=O)O[C@H](COC)[C@@]2(C)C1=C(O)C(=O)C1=C2[C@H](OC(C)=O)C[C@]2(C)C(=O)CC[C@@H]12)CC=C [SONOLISIB] | > 30 µM (inactive) | > 30 µM (inactive) | – | – | > 30 µM (inactive) | > 30 µM (inactive) | –
CN1CCN(c2nc(C3=C(c4c[nH]c5ccccc45)C(=O)NC3=O)c3ccccc3n2)CC1 [SOTRASTAURIN] | > 30 µM (inactive) | > 30 µM (inactive) | > 30 µM (inactive) | – | > 30 µM (inactive) | > 30 µM (inactive) | > 30 µM (inactive)
O[C@H]1CC[C@H](Nc2ncc3nc(Nc4c(F)cc(F)cc4F)n([C@H]4CCOC4)c3n2)CC1 [TANZISERTIB] | > 30 µM (inactive) | > 30 µM (inactive) | > 30 µM (inactive) | – | > 30 µM (inactive) | > 30 µM (inactive) | > 30 µM (inactive)
COc1cc2ncnc(Nc3ccc(O)cc3)c2cc1OC [WHI-P131] | 1.54 µM (active) | > 30 µM (inactive) | > 30 µM (inactive) | > 30 µM (inactive) | > 30 µM (inactive) | > 30 µM (inactive) | –
